In patent US8871735B2, “Methods and compositions for providing cardiac protection” (University of Medicine and Dentistry of New Jersey, priority 2008, dated 2014):
pIC50: −log10 of the molar value. Each block holds one compound with its values, some of them ahead of it.

What was measured:
[1] = system: H9C2 cells; experiment: cAMP accumulation in H9C2 cells; type: cell-based; conditions: 5 μM ISO, 3 minutes, 10 μM drug
Text: […] Fludarabine ((+)-2-Fluoro-9-(5-O-phosphono-β-D-arabinofuranosyl)-9H-purin-6-amine) and Cladribine (2-chloro-2′-deoxyadenosine) are anti-cancer drugs, Adefovir (Bis(2,2-dimethylpropanoyloxymethyl)[2-(6-amino-9H-purin-9-yl)ethoxymethyl]phosphonate) and Zidovudine are anti-HIV drugs. Zidovudine-TP is a metabolite of zidovudine which inhibits virus replication. TP; triphosphate. 3-Deazaadenosine, Formycin A (7-Amino-3-(β-D-ribofuranosyl)-1H-pyrazolo[4,3-d]pyrimidine), 2-Far (2-Fluoroadenosine), formycin A ((2S,3R,4S,5R)-2-(7-amino-2H-pyrazolo[5,4-e]pyramidin-3-yl-5-(hydroxymeth-yl)oxolane-3,4-diol), 2-FD (2-Fluoro-2′-deoxyadenosine) and 2′5′ ddAdo (2′5′-dideoxyadenosine) are experimental drugs.
(§1) Mice were anesthetized with 2.5% tribromoethanol (0.010 to 0.015 mL per gram of body weight) injected intraperitoneally, and echocardiography was performed with ultrasonography (ACUSON Sequoia C256, Siemens Medical Solutions, Malvern, Pa.). For acute injection of isoproterenol, forskolin and milrinon, a PE-10 catheter was inserted into the right jugular vein, and drugs were injected at the rate of 1 μl/s. cAMP accumulation assay in H9C2 cells, a cardiac myoblast cell line, was examined as previously described.

[2] = system: AC; experiment: cAMP production in membrane preparations from mouse heart; type: biochemical; conditions: 50 μM forskolin, 10 μM drug
Experimental: Such membrane permeability was examined using whole cell, which is addressed in FIG. 11b). cAMP production was measured with 50 μM forskolin in the presence or absence of 10 μM of the indicated drugs. n=2. (b) cAMP accumulation is shown in H9C2 cells. […] Ara-Ade (Adenine 9-β-D-arabinofuranoside) is an anti-herpes simplex drug. Fludarabine ((+)-2-Fluoro-9-(5-O-phosphono-β-D-arabinofuranosyl)-9H-purin-6-amine) and Cladribine (2-chloro-2′-deoxyadenosine) are anti-cancer drugs, Adefovir (Bis(2,2-dimethylpropanoyloxymethyl)[2-(6-amino-9H-purin-9-yl)ethoxymethyl]phosphonate) and Zidovudine are anti-HIV drugs. Zidovudine-TP is a metabolite of zidovudine which inhibits virus replication. TP; triphosphate. 3-Deazaadenosine, Formycin A (7-Amino-3-(β-D-ribofuranosyl)-1H-pyrazolo[4,3-d]pyrimidine), 2-Far (2-Fluoroadenosine), formycin A ((2S,3R,4S,5R)-2-(7-amino-2H-pyrazolo[5,4-e]pyramidin-3-yl-5-(hydroxymeth-yl)oxolane-3,4-diol), 2-FD (2-Fluoro-2′-deoxyadenosine) and 2′5′ ddAdo (2′5′-dideoxyadenosine) are experimental drugs.
Various compounds with adenine-like backbone structure were screened because this structure is essential for both AC inhibition and plasma membrane permeability. Drug effects on AC activity was examined by using membrane preparations from mouse heart and striatum, in which AC5 provides 20% and 80% of total AC activity, respectively. […]

[3] = system: C57Bl/6 mice motor function; experiment: Rotarod performance test and pole test; type: in vivo, mouse; conditions: Ara-Ade by mini-osmotic pump; MPTP 30 mg/kg i.p. daily for 5 days
Experimental: In C57Bl/6 mice, Ara-Ade was chronically infused with an osmotic mini-pump at the indicated doses for 5 days. a) Each mouse was placed on a rod subjected to evaluate Rotarod performance. Mice were left for 1 min on the rod for habituation. The rod rotated gradually increasing from 4 to 40 rpm over the course of 5 min, and the time that mice could stay without failing was recorded. Five trials were conducted for each individual 10-25 min apart. As a positive control, 1-methyl 4-phenyl 1,2,3,6-tetrahydropyridine (MPTP) was intraperitoneally injected for the indicated dose for 5 days. *, p<0.01 relative to vehicle. #, p<0.05 relative to vehicle. n=6-7. b) To evaluate bradykinesia, a pole test was performed. Mice were placed head upward on the top of a rough surfaced pole that was wrapped with gauze to prevent slipping. The time until the mouse turned completely downward (open bars, TTURN) and the time until it climbed down to the floor (closed bars, TLA) were measured.
Four days after the implantation, Rotarod performance test and pole test were examined as previously described. For MPTP injection (1-methyl 4-phenyl 1,2,3,6-tetrahydropyridine), mice were injected intraperitoneally (i.p.) with 0.1 mL of PBS or MPTP dissolved in PBS at 24-hour intervals for 5 days. The daily dose of MPTP was 30 mg/kg. […]

[4] = system: cardiac myocytes; conditions: cited from earlier work
[5] = system: AC5; conditions: cited from earlier work
[6] = system: cardiac myocytes; experiment: ISO-induced apoptosis in cultured cardiac myocytes (DNA fragmentation ELISA); type: cell-based; conditions: 100 μM ISO, 48 h
[7] = system: cardiac myocytes; experiment: ISO-stimulated cAMP accumulation in cultured cardiac myocytes; type: cell-based, mouse; conditions: 10 μM compound
[8] = system: cardiac myocytes; experiment: ISO-induced cell contraction in cultured cardiac myocytes; type: cell-based; conditions: 10 μM
[9] = molecular target: T1, AC5 (UniProt P30803); experiment: AC inhibition, recombinant AC proteins: AC5; type: biochemical; conditions: recombinant AC proteins; read-out: IC50 AC5
T1 construct: IC50 AC5; other: recombinant AC proteins; other: THFA: in the presence of Gs-α/GTPαS/forskolin

[10] = system: AC5; experiment: AC inhibition, recombinant AC proteins: AC5; type: biochemical
[11] = molecular target: T2, AC3 (Rattus norvegicus, UniProt P21932); experiment: AC inhibition, recombinant AC proteins: AC3; type: biochemical
T2 construct: made in house
T2 sequence (P21932 whole entry): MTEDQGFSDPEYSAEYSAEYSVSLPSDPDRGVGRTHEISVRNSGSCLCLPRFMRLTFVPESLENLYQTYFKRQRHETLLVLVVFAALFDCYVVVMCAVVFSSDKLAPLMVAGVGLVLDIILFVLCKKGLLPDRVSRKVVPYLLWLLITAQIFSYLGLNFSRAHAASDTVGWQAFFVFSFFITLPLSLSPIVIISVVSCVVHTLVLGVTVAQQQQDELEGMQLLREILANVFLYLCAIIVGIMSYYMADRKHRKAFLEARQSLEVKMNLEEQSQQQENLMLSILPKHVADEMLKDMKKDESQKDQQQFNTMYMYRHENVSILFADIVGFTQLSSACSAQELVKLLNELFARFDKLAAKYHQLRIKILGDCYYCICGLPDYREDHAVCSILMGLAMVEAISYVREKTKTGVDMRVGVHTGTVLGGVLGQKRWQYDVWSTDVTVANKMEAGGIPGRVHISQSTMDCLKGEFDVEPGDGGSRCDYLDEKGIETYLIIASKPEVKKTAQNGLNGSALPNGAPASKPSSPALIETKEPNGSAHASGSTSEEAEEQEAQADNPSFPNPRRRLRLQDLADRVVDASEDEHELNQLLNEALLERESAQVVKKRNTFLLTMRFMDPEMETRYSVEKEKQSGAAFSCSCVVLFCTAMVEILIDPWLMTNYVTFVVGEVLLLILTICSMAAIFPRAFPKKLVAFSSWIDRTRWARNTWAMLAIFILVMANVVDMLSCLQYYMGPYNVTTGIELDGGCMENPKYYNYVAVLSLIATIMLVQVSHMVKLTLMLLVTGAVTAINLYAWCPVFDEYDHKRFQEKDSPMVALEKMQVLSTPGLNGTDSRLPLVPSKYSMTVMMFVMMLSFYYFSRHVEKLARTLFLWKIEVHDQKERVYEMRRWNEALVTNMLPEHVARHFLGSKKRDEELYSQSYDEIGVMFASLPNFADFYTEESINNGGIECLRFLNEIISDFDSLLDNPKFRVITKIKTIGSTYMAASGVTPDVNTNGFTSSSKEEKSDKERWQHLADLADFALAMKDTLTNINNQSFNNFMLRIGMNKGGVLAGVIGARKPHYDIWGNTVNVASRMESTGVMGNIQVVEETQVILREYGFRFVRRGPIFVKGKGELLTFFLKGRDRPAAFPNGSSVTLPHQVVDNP

[12] = molecular target: AC2 (UniProt P26769); experiment: AC inhibition, recombinant AC proteins: AC2; type: biochemical
[13] = system: AC2; conditions: previously noted; cited from earlier work
[14] = system: C57Bl/6 mice, chronic ISO infusion; experiment: Chronic ISO infusion heart failure model; type: in vivo, mouse; conditions: for ISO-induced decrease in LVEF (and FS): ISO 60 mg/kg/d 7 days, Ara-Ade 20 and 100 mg/kg/day, 2′5′ ddAdo 20 mg/kg/day
Text: (§2) ISO with or without AC5 inhibitors were chronically infused with osmotic mini-pump implanted subcutaneously at indicated doses for 1 week in c57Bl/6 mice. Mice were then subjected to echocardiography (a) and the hearts were removed and subjected to pathological examinations such as myocardial apoptosis (b) and fibrosis (c). n=4-8.
(§3) In C57Bl/6 mice, ISO with or without AC5 inhibitors or metoprolol were chronically infused with an osmotic mini-pump at the indicated doses for 1 week. Mice were then subjected to echocardiography (a) and heart tissue were subjected to a myocardial apoptosis assay (b). *, p<0.01 vs vehicle. #, p<0.05 vs vehicle. .dagger., p<0.01 vs ISO. .dagger-dbl., p<0.05 vs ISO. n=4-15. […] Comparisons between multiple groups were made using ANOVA with post-hoc tests.
Tenofovir diphosphate (PMPA-PP), zidovudine monophosphate (MP), zidovudine diphosphate (PP), zidovudine triphosphate (TP), famciclovir penciclovir and valaciclovir were purchased from Moravek. Formycin A (FMA) and Formycin B (FMB) were purchased from Berry and Associates. All other reagents were from Sigma unless specified. Long-term infusion of isoproterenol (Sigma, St. Louis, Mo.) was performed for 7 days at a dose of 60 mg/kg/d with or without AC5 inhibitors by using a miniosmotic pump (ALZET model 2001, DURECT Corp, Cupertino, Calif.). Control mice received vehicle in pumps. Pumps were removed 24 hours before biochemical and physiological studies. Experiments were performed in 3- to 5-month-old male C57Bl/6, and in AC5Tg transgenic mice. This study was approved by the Animal Care and Use Committee at New Jersey Medical School.
as §1

[15] = system: mice; experiment: Basal cardiac function (echocardiography) under chronic drug infusion alone; type: in vivo, mouse; conditions: chronic infusion of drug alone (3 days to 1 week)
Text: as §2, §3
as §1, with “described. […]” for “described.”

[16] = system: isolated perfused rat hearts; conditions: cited from earlier work
[17] = system: patients; conditions: BHAT; cited from earlier work

SMILES: Nc1nccc2c1ncn2[C@@H]1O[C@H](CO)[C@@H](O)[C@H]1O [3-deazaadenosine, 3-Deazaadenosine]
inhibition of cAMP accumulation in H9C2 cells [1]: little inhibition | ratio of inhibition between the heart membrane and the striatum membrane [2]: less than one

SMILES: CN1CC=C(c2ccccc2)CC1 [MPTP, 1-methyl 4-phenyl 1,2,3,6-tetrahydropyridine]
Rotarod and pole test performance [3]: significantly impaired

SMILES: Nc1ncc2c(n1)CC(c1ccco1)CC2=O (stereo not drawn) [NKY80, 2-amino-7-(2-furanyl)-7,8-dihydro-5(6H)-quinazoline]
inhibition of cAMP accumulation in cultured cardiac myocytes [4]: did not inhibit cAMP accumulation | inhibition of purified AC5 protein in vitro [5]: moderate inhibition

pIC50 [9]: 6.49 | pIC50 [11]: 4.95 | pIC50 [12]: 4.19
SMILES: Nc1ncnc2c1ncn2C1CCC(C(=O)NO)C1 (stereo not drawn) [PMC-6]
ISO-induced apoptosis in cultured cardiac myocytes [6]: abolished | decrease in ISO-induced cAMP production / accumulation in cultured cardiac myocytes [7]: 50% | inhibition of ISO-induced cell contraction [8]: did not inhibit | Selectivity ratio for AC5, AC5/AC2 ([10]; ratio of IC50 for AC5 to that for AC2): 0.0049 | Selectivity ratio for AC5, AC5/AC3 ([10]; ratio of IC50 for AC5 to that for AC3): 0.029

SMILES: Nc1ncnc2c1ncn2C1CCCO1 (stereo not drawn) [THFA, 9-(tetrahydro-2-furyl)adenine]
selectivity ratio between AC6 and AC2 [13]: 1.8 | selectivity ratio between AC5 and AC2 [10]: 130

basal LVEF [15]: decreased
SMILES: COCCc1ccc(OCC(O)CNC(C)C)cc1 (stereo not drawn) [metoprolol]
ISO-induced decrease in LVEF (and FS) [14]: attenuated ISO-induced cardiac dysfunction | ISO-induced decrease in LVEF (and FS) ([14]; listed as Metoprolol): rescued ISO-induced LVEF decrease | HR decreased by chronic ISO ([14]; chronic ISO infusion): rescue decreased HR | ISO-induced myocardial apoptosis in vivo ([14]; chronic ISO infusion): to a lesser degree than Ara-Ade | ISO-induced wall thickening (DESP, DPW) ([14]; chronic ISO infusion): did not show significant increase

SMILES: CC(C)NCC(O)COc1cccc2ccccc12 (stereo not drawn) [propranolol]
arrhythmia in low flow perfusion / NE model [16]: effectively reduced arrhythmia | decrease of sudden cardiac death, patients with a history of HF [17]: 47% | decrease of sudden cardiac death, patients with a history of MI [17]: 28%
